For orientation: inhibition means the percentage by which the read-out fell short of the control. The low end stands for a response near the control, the high end for a response far below the control.

One assay deals with TNFα mRNA. Kind of assay: Cytokine mRNA expression inhibitory ability, TNFα, LPS-treated Raw264.7 cells. Type of assay: cell-based. To be noted: 1 μM compound 24 hours, then 100 ng/ml LPS 24 hours. On the procedure: Evaluation of cytokine mRNA expression inhibitory ability according to inflammatory response
(§1) In order to identify inhibition of p-p38 MAPK, inhibition of p38 MAPK was identified after treating each compound to Raw264.7 cells obtained by converting macrophages that induces inflammation according to p-p38 MAPK activity cancerous cells. Briefly, Raw264.7 cells were cultured in Dulbecco's modified Eagle Medium supplemented with 10% fetal bovine serum and penicillin/streptomycin (100 U/ml). Raw264.7 cells were treated with 1 μM of Compounds 1 to 5 according to the present disclosure in a culture dish respectively and cultured for 24 hours in a CO2 incubator, and then treated with 100 ng/ml of LPS, followed by additional culture for 24 hours in a CO2 incubator.
After cell culture was terminated according to the experimental conditions, cells were washed with cold phosphate buffered saline (PBS). The cells were then collected and centrifuged at 1200 rpm for 3 minutes. RNA was extracted according to the method provided in the Hybrid-R total RNA purification kit (GeneAll, 305-101). After measuring the concentration and purity of RNA using Nanodrop, cDNA was synthesized according to the method provided in TOPscript RT DryMIX (Enzynomics, RT200). After a reaction at 95° C. for 3 minutes using SYBR Green Mix along with primer, cDNA was subjected to repetitive reactions 30 times at 95° C. for 10 seconds, at 55° C. for 10 seconds, and at 72° C. for 30 seconds to determine the RNA expression level. The results are shown in Tables 5 and 6 below and FIGS. 1 and 2.

A further assay has as its system TNFα. Kind of assay: TNFα inhibitory ability by cellular inflammatory response (supernatant, antibody-coated plate), Raw264.7 cells. The class given is cell-based. To be noted: Mus musculus, 1 μM compound 24 hours, then 100 ng/ml LPS 24 hours, supernatant protein. On the procedure: Evaluation of TNFα inhibitory ability by cellular inflammatory response
as §1
After the cell culture was completed according to the experimental conditions, the supernatant was obtained and centrifuged for 3 minutes at 1200 rpm. The centrifuged supernatant was dispensed into an antibody-coated plate, reacted at room temperature for 2 hours, and washed with PBS-T (0.5% tween 20 in PBS). After dispensing detection antibody including HRP, a reaction was performed at room temperature for 1 hour, and the amount of protein was checked at a wavelength of 450 nm, the results of which are shown in Table 7 below.

The target of another assay is p-p38 MAPK (Mus musculus (Mouse), UniProt P47811). Kind of assay: p38 MAPK protein inhibitory ability in normal brain cells (p-p38 immunoblot, primary neurons). The class given is cell-based, ICR mice. An excerpt: Evaluation of p38 MAPK protein inhibitory ability in normal brain cells
In order to identify inhibition of p-p38 MAPK in normal cells rather than cancer cells, the inhibition of p38 MAPK was identified by inducing inflammation after treating neuron cells obtained from cerebrum of ICR mice with each compound. In short, neurons were collected from the cerebrum of the embryos of ICR mice 17-18 days after gestation and cultured for 7 days in a neurobasal medium supplemented with 2% B27 supplements, 2 mM glutamine, and penicillin/streptomycin (100 U/ml). Primary neurons were treated with 1 μM of Compounds 4 and 6 according to the present disclosure in a culture dish respectively and cultured for 24 hours in a CO2 incubator, and then treated with 1000 ng/ml of LPS, followed by additional culture for 6 hours in a CO2 incubator.
After the cell culture was terminated according to the experimental conditions, washing was performed with cold phosphate buffered saline (PBS). The cells were then collected and centrifuged at 1200 rpm for 3 minutes. The cells in the sediment were lysed with 2X sample buffer (1M Tris-HCl pH 6.8, 50% glycerol, 10% SDS, 2-mercaptoethanol, 1% bromophenol blue) and boiled at 100° C. for 10 minutes. The prepared protein samples were subjected to sodium dodecyl sulfate poly acrylamide gel electrophoresis and transferred to PVDF membrane (Millipore). For a specific binding reaction between the protein in the PVDF membrane and antibody, blocking was performed in a 5% bovine serum albumin (BSA, RMbio) solution. Subsequently, the BSA solution was discarded, and the membrane was washed with PBS-T (0.5% Tween 20 in PBS). The binding reaction between the protein in the membrane and antibody was performed overnight at 4° C. and washed again with PBS-T. Finally, a secondary antibody (Cell signaling Technology) conjugated with horse radish peroxidase (HRP) was diluted in PBS-T and reacted at room temperature for 2 hours. Luminata Forte HRP substrate (Millipore) was used to determine the amount of protein in the membrane, the results of which are shown in Table 9 below.

For another assay, the system named is IL-1β mRNA. Kind of assay: Cytokine mRNA expression inhibitory ability, IL-1β, LPS-treated BV2 cells. Type of assay: cell-based. Particulars: 1 μM compound 24 hours, then 1000 ng/ml LPS 24 hours. The procedure:
(§2) Evaluation of cytokine mRNA expression inhibitory ability by inflammatory response
(§3) In order to identify inhibition of p-p38 MAPK, the inhibition of p38 MAPK was identified by treating each compound to BV2 cells obtained by converting microglia that induces inflammation according to p-p38 MAPK activity in the brain into cancerous cells. Briefly, BV2 cells were cultured in Dulbecco's modified Eagle Medium supplemented with 10% fetal bovine serum and penicillin/streptomycin (100 U/ml). BV2 cells were treated with 1 μM of Compounds 4 to 6 according to the present disclosure in a culture dish respectively and cultured for 24 hours in a CO2 incubator, and then treated with 1000 ng/ml of LPS, followed by additional culture for 24 hours in a CO2 incubator.
(§4) After the cell culture was completed according to the experimental conditions, washing was performed with cold phosphate buffered saline (PBS). The cells were then collected and centrifuged at 1200 rpm for 3 minutes. RNA was extracted according to the method provided in the Hybrid-R total RNA purification kit (GeneAllR), 305-101). After measuring the concentration and purity of RNA using Nanodrop, cDNA was synthesized according to the method provided in TOPscript RT DryMIX (Enzynomics, RT200). […]

Another assay relates to IL-6 mRNA. Kind of assay: Cytokine mRNA expression inhibitory ability, IL-6, LPS-treated BV2 cells. Type of assay: cell-based. Particulars: 1 μM compound 24 hours, then 1000 ng/ml LPS 24 hours. The procedure: as §2, §3, §4

Chain of p-p38 MAPK (P47811 whole entry): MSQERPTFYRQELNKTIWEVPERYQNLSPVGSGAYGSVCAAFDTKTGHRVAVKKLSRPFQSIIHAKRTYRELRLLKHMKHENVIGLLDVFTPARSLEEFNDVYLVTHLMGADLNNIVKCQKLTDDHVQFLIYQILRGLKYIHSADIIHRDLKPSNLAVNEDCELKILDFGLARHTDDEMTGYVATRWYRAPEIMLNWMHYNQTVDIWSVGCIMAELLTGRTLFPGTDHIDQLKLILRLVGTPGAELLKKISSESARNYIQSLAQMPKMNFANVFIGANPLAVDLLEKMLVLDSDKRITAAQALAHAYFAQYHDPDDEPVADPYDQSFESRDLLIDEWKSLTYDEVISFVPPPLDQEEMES

As for `Cc1c(F)cc(C(=O)NC2CC2)cc1-c1ccc(C(=O)c2c[nH]c3ccccc23)cn1` [Compound 4, 3-(5-(1H-indole-3-carbonyl)pyridin-2-yl)-N-cyclopropyl-5-fluoro-4-methylbenzamide], in the assay with TNFα mRNA, the “TNFα mRNA inhibition” value stood at 51.5%. Moreover, the inhibition at 1 µM in the assay with TNFα was found to be 76.6%; against p-p38 MAPK (primary neurons from cerebrum of ICR mouse embryos, 1 μM compound 24 hours, then 1000 ng/ml LPS 6 hours), 55.8%. The “p38 phosphorylation due to inflammation in normal cells (result in words)” value at p-p38 MAPK (primary mouse neurons, 1 μM) is recorded as “effectively inhibited p38 phosphorylation”. Also, the “IL-1β mRNA inhibition” value with IL-1β mRNA is 68.5%. Moreover, the “IL-6 mRNA inhibition” value in the assay on IL-6 mRNA was 52.8%.

The record behind these values is US20240270713A1, “NOVEL COMPOUND EXHIBITING THERAPEUTIC EFFECT ON INFLAMMATORY DISEASE AS P38 MAP KINASE INHIBITOR” (PRAZERTHERAPEUTICS INC., priority 2021, published 2024).
